pIC50: −log10 of the molar value.

In general, pIC50 refers to −log10 of the IC50, conventionally taken in molar units. Read a high pIC50 as a low IC50.

Experiment in all cases: MMP enzymatic activity, modified fluorescence assay (DNP-substrate)
Common to all, as to type: biochemical

One assay concerns the target T1, Human MMP-1 (Homo sapiens, UniProt P03956).
T1 sequence (P03956 100-469): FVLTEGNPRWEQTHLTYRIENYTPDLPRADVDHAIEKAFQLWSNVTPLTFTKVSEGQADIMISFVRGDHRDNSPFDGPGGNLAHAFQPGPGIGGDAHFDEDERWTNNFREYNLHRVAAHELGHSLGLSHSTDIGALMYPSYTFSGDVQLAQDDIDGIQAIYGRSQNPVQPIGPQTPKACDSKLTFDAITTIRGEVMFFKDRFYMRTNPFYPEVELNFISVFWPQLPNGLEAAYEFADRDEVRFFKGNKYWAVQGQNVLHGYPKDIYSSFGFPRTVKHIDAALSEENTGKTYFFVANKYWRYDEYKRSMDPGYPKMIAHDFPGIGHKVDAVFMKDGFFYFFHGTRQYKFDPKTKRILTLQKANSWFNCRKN
On the procedure: (§1) IC50 values are measured by an in vitro assay for MMP enzymatic activity. […] This assay is based on the determination of MMP enzymatic activity on a dinitrophenol substrate and fluorescence measurement of the substrate after cleaving by MMPs.
(§2) Human MMP-1, MMP-2, MMP-3, MMP-9 and MMP-14 are commercially available (e.g. Calbiochem). The pro-enzymes were activated with 1 mM APMA (incubation for 30 min at 37° C.) immediately before testing. Activated enzyme is diluted to 100 ng/ml in incubation buffer (50 mM Tris, 100 mM NaCl, 10 mM CaCl2, pH 7.6). The compounds were dissolved in 100% DMSO.
(§3) The test tube contains 970 μl incubation buffer, 10 μl inhibitor solution and 10 μl enzyme solution. The reaction was started by adding the 10 μl substrate solution.

Another assay has as its target T2, Human MMP-2 (Homo sapiens, UniProt P08253).
T2 sequence (P08253 110-660): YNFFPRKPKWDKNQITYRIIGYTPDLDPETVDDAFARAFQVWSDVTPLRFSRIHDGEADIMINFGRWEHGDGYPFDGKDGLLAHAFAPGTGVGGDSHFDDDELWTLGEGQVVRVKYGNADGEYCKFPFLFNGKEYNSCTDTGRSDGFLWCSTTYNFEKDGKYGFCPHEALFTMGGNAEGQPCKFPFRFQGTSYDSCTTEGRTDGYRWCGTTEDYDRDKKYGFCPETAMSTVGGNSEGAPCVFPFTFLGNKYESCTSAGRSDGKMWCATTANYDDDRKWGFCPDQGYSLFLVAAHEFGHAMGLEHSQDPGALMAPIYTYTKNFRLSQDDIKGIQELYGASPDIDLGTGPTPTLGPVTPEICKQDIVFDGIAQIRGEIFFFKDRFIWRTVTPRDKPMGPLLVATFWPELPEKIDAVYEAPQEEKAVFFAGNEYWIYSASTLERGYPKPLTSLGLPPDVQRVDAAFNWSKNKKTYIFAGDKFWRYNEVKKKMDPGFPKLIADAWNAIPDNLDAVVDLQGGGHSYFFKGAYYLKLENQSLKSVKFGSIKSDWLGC
As for the experimental part: as §1, §2, §3

For the next assay, the target named is Human MMP-3 (Homo sapiens, UniProt P08254). As for the experimental part:
as §1, §2, §3

Chain of Human MMP-3 (P08254 100-477): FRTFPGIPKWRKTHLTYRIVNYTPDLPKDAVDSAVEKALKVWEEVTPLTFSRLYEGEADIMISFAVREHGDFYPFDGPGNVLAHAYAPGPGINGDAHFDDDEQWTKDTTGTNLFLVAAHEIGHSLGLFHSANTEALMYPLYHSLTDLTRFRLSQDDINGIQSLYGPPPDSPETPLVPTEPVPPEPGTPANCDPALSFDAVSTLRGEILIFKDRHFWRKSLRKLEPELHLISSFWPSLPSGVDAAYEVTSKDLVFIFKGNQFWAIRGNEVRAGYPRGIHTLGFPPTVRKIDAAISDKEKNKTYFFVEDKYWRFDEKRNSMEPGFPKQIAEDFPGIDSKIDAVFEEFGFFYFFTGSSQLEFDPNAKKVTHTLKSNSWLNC

As to `O=C1NC(=O)C(c2ccc(-c3ccccc3)cc2)(N2CCN(c3ccc([N+](=O)[O-])cc3)CC2)C(=O)N1` [Compound I, 5-Biphenyl-4-yl-5-[4-(4-nitro-phenyl)-piperazin-1-yl]pyrimidine-2,4,6-trione], the pIC50 was 4.28 on Human MMP-1, 7.19 against Human MMP-2 and 5.46 on Human MMP-3.
